# Test system: patients with end stage renal disease (ESRD) on hemodialysis
# Assay: Treatment-emergent adverse events in the dose-ranging ESRD study
# Type: in vivo, human
# Source text: Safety will be monitored by recording adverse events and the results of physical examinations, vital signs and laboratory tests at each study visit.
# Objectives: (1) To determine the effect of ferric citrate at doses of 2, 4 and 6 g daily, administered TID (three times a day), for 28 days on serum phosphate (PO4) levels in patients with end stage renal disease (ESRD). (2) To evaluate the safety of ferric citrate at doses of 2, 4, 6 g daily, administered TID, for 28 days in patients with ESRD.
# Study Design: Randomized, double-blind, placebo-controlled, dose-ranging study to assess the effect of ferric citrate on serum phosphate concentrations in patients with ESRD on hemodialysis. Patients are assessed at Study Days 14 and 28 for effectiveness as measured by serum phosphate concentrations. Patients who received one or more doses of study medication are also assessed for safety.
substance,measurement,setting,value
ferric citrate,"Abdominal Pain (Preferred Term), # Event",2 g/day (N = 33),0
same,"Abdominal Pain (Preferred Term), (%)",2 g/day (N = 33),(0.0) %
same,"Diarrhea (Preferred Term), # Event",2 g/day (N = 33),3
same,"Diarrhea (Preferred Term), (%)",2 g/day (N = 33),(9.1) %
same,"GI Disorder, Definitely (relationship), # Event",2 g/day (N = 33),0
same,"GI Disorder, Definitely (relationship), (%)",2 g/day (N = 33),(0.0) %
same,"GI Disorder, Possibly (relationship), # Event",2 g/day (N = 33),3
same,"GI Disorder, Possibly (relationship), (%)",2 g/day (N = 33),(9.1) %
same,"GI Disorder, Probably (relationship), # Event",2 g/day (N = 33),2
same,"GI Disorder, Probably (relationship), (%)",2 g/day (N = 33),(6.1) %
same,"GI Disorders (System Organ Class), # Event",2 g/day (N = 33),8
same,"GI Disorders (System Organ Class), (%)",2 g/day (N = 33),(24.2) %
same,"GI Disorders, Mild (severity), # Event",2 g/day (N = 33),6
same,"GI Disorders, Mild (severity), (%)",2 g/day (N = 33),(18.2) %
same,"General Disorders (System Organ Class), # Event",2 g/day (N = 33),4
same,"General Disorders (System Organ Class), (%)",2 g/day (N = 33),(12.1) %
same,"Infections and Infestations (System Organ Class), # Event",2 g/day (N = 33),0
same,"Infections and Infestations (System Organ Class), (%)",2 g/day (N = 33),(0.0) %
same,"Skin and SC Tissue Disorders (System Organ Class), # Event",2 g/day (N = 33),3
same,"Skin and SC Tissue Disorders (System Organ Class), (%)",2 g/day (N = 33),(9.1) %
same,"T#at1 AE, Definitely (relationship), # Event",2 g/day (N = 33),0
same,"T#at1 AE, Definitely (relationship), (%)",2 g/day (N = 33),(0.0) %
same,"T#at1 AE, Mild (severity), # Event",2 g/day (N = 33),13
same,"T#at1 AE, Mild (severity), (%)",2 g/day (N = 33),(39.4) %
same,"T#at1 AE, Moderate (severity), # Event",2 g/day (N = 33),6
same,"T#at1 AE, Moderate (severity), (%)",2 g/day (N = 33),(18.2) %
same,"T#at1 AE, Possibly (relationship), # Event",2 g/day (N = 33),5
same,"T#at1 AE, Possibly (relationship), (%)",2 g/day (N = 33),(15.2) %
same,"T#at1 AE, Probably (relationship), # Event",2 g/day (N = 33),2
same,"T#at1 AE, Probably (relationship), (%)",2 g/day (N = 33),(6.1) %
same,"T#at1 AE, Severe (severity), # Event",2 g/day (N = 33),0
same,"T#at1 AE, Severe (severity), (%)",2 g/day (N = 33),(0.0) %
same,"Total number of subjects with at least one adverse event (T#at1 AE), # Event",2 g/day (N = 33),16
same,"Total number of subjects with at least one adverse event (T#at1 AE), (%)",2 g/day (N = 33),(48.5) %
same,"Abdominal Pain (Preferred Term), # Event",4 g/day (N = 34),4
same,"Abdominal Pain (Preferred Term), (%)",4 g/day (N = 34),(11.8) %
same,"Diarrhea (Preferred Term), # Event",4 g/day (N = 34),1
same,"Diarrhea (Preferred Term), (%)",4 g/day (N = 34),(2.9) %
same,"GI Disorder, Definitely (relationship), # Event",4 g/day (N = 34),0
same,"GI Disorder, Definitely (relationship), (%)",4 g/day (N = 34),(0.0) %
same,"GI Disorder, Possibly (relationship), # Event",4 g/day (N = 34),6
same,"GI Disorder, Possibly (relationship), (%)",4 g/day (N = 34),(17.6) %
same,"GI Disorder, Probably (relationship), # Event",4 g/day (N = 34),2
same,"GI Disorder, Probably (relationship), (%)",4 g/day (N = 34),(5.9) %
same,"GI Disorders (System Organ Class), # Event",4 g/day (N = 34),10
same,"GI Disorders (System Organ Class), (%)",4 g/day (N = 34),(29.4) %
same,"GI Disorders, Mild (severity), # Event",4 g/day (N = 34),8
same,"GI Disorders, Mild (severity), (%)",4 g/day (N = 34),(23.5) %
same,"General Disorders (System Organ Class), # Event",4 g/day (N = 34),2
same,"General Disorders (System Organ Class), (%)",4 g/day (N = 34),(5.9) %
same,"Infections and Infestations (System Organ Class), # Event",4 g/day (N = 34),3
same,"Infections and Infestations (System Organ Class), (%)",4 g/day (N = 34),(8.8) %
same,"Skin and SC Tissue Disorders (System Organ Class), # Event",4 g/day (N = 34),0
same,"Skin and SC Tissue Disorders (System Organ Class), (%)",4 g/day (N = 34),(0.0) %
same,"T#at1 AE, Definitely (relationship), # Event",4 g/day (N = 34),0
same,"T#at1 AE, Definitely (relationship), (%)",4 g/day (N = 34),(0.0) %
same,"T#at1 AE, Mild (severity), # Event",4 g/day (N = 34),9
same,"T#at1 AE, Mild (severity), (%)",4 g/day (N = 34),(26.5) %
same,"T#at1 AE, Moderate (severity), # Event",4 g/day (N = 34),3
same,"T#at1 AE, Moderate (severity), (%)",4 g/day (N = 34),(8.8) %
same,"T#at1 AE, Possibly (relationship), # Event",4 g/day (N = 34),6
same,"T#at1 AE, Possibly (relationship), (%)",4 g/day (N = 34),(17.6) %
same,"T#at1 AE, Probably (relationship), # Event",4 g/day (N = 34),2
same,"T#at1 AE, Probably (relationship), (%)",4 g/day (N = 34),(5.9) %
same,"T#at1 AE, Severe (severity), # Event",4 g/day (N = 34),2
same,"T#at1 AE, Severe (severity), (%)",4 g/day (N = 34),(5.9) %
same,"Total number of subjects with at least one adverse event (T#at1 AE), # Event",4 g/day (N = 34),12
same,"Total number of subjects with at least one adverse event (T#at1 AE), (%)",4 g/day (N = 34),(35.3) %
same,"Abdominal Pain (Preferred Term), # Event",6 g/day (N = 33),2
same,"Abdominal Pain (Preferred Term), (%)",6 g/day (N = 33),(6.1) %
same,"Diarrhea (Preferred Term), # Event",6 g/day (N = 33),1
same,"Diarrhea (Preferred Term), (%)",6 g/day (N = 33),(3.0) %
same,"GI Disorder, Definitely (relationship), # Event",6 g/day (N = 33),0
same,"GI Disorder, Definitely (relationship), (%)",6 g/day (N = 33),(0.0) %
same,"GI Disorder, Possibly (relationship), # Event",6 g/day (N = 33),1
same,"GI Disorder, Possibly (relationship), (%)",6 g/day (N = 33),(3.0) %
same,"GI Disorder, Probably (relationship), # Event",6 g/day (N = 33),5
same,"GI Disorder, Probably (relationship), (%)",6 g/day (N = 33),(15.2) %
same,"GI Disorders (System Organ Class), # Event",6 g/day (N = 33),10
same,"GI Disorders (System Organ Class), (%)",6 g/day (N = 33),(30.3) %
same,"GI Disorders, Mild (severity), # Event",6 g/day (N = 33),9
same,"GI Disorders, Mild (severity), (%)",6 g/day (N = 33),(27.3) %
same,"General Disorders (System Organ Class), # Event",6 g/day (N = 33),4
same,"General Disorders (System Organ Class), (%)",6 g/day (N = 33),(12.1) %
same,"Infections and Infestations (System Organ Class), # Event",6 g/day (N = 33),1
same,"Infections and Infestations (System Organ Class), (%)",6 g/day (N = 33),(3.0) %
same,"Skin and SC Tissue Disorders (System Organ Class), # Event",6 g/day (N = 33),4
same,"Skin and SC Tissue Disorders (System Organ Class), (%)",6 g/day (N = 33),(12.1) %
same,"T#at1 AE, Definitely (relationship), # Event",6 g/day (N = 33),0
same,"T#at1 AE, Definitely (relationship), (%)",6 g/day (N = 33),(0.0) %
same,"T#at1 AE, Mild (severity), # Event",6 g/day (N = 33),14
same,"T#at1 AE, Mild (severity), (%)",6 g/day (N = 33),(42.4) %
same,"T#at1 AE, Moderate (severity), # Event",6 g/day (N = 33),2
same,"T#at1 AE, Moderate (severity), (%)",6 g/day (N = 33),(6.1) %
same,"T#at1 AE, Possibly (relationship), # Event",6 g/day (N = 33),2
same,"T#at1 AE, Possibly (relationship), (%)",6 g/day (N = 33),(6.1) %
same,"T#at1 AE, Probably (relationship), # Event",6 g/day (N = 33),5
same,"T#at1 AE, Probably (relationship), (%)",6 g/day (N = 33),(15.2) %
same,"T#at1 AE, Severe (severity), # Event",6 g/day (N = 33),1
same,"T#at1 AE, Severe (severity), (%)",6 g/day (N = 33),(3.0) %
same,"Total number of subjects with at least one adverse event (T#at1 AE), # Event",6 g/day (N = 33),17
same,"Total number of subjects with at least one adverse event (T#at1 AE), (%)",6 g/day (N = 33),(51.5) %
